In patent US9440933B2, “Azole derivative, method for producing same, intermediate compound, and agricultural or horticultural chemical agent and industrial material protecting agent” (KUREHA CORPORATION, priority 2011, dated 2016):

How the values were obtained:
[1] = system: wheat leaf blight-causing microbe; experiment: Antimicrobial activity to wheat leaf blight-causing microbe (PDA plate, hyphal expansion inhibition); format: cell-based, Septoria tritici; conditions: Concentration 50 mg/L, PDA medium, 25° C., 14 days; for inhibition at 50 µg/mL: 336 h, read-out: Growth inhibition
Method: In this Test Example, antimicrobial activity of the inventive compounds to wheat leaf blight-causing microbe was determined and compared with that of the comparative compound (1).

[2] = system: wheat leaf rust-causing microbe; experiment: Wheat leaf rust-controlling activity (foliar spray, pot test); format: in vivo, Puccinia recondita; conditions: Concentration 25 g/ha; wettable powder sprayed on wheat (Norin No. 61), 9 to 14 days after inoculation
[3] = system: Wheat fusarium blight-causing microbe (Fusarium graminearum); format: cell-based; conditions: 50 mg/L
[4] = system: Rice blast-causing microbe (Pyricularia oryzae); format: cell-based; conditions: 50 mg/L
[5] = system: wheat powdery mildew-causing microbes; experiment: Controlling activity to wheat powdery mildew of seed treatment (pot test); format: in vivo, Erysiphe graminis f. sp tritici; conditions: 2 mg in DMSO applied to wheat seeds 1 g, 14 to 28 days after seeding
Method: Controlling activity to wheat powdery mildew was examined in a pot test. Each of the inventive compounds […]-53, and a comparative compound (1) was weighed in an amount of 2 mg and dissolved in DMSO (18 μl). The solution thus prepared was applied to wheat seeds 1 g in a vial, 8 wheat seeds were seeded in a 80 cm^2 pot. The wheat was grown, as water was supplied from blow, in a greenhouse where wheat powdery mildew-causing microbes are present abundantly. The incidence rate was determined and the controlling rate and additionally the controlling index calculated 14 to 28 days after seeding. The controlling rate was calculated and the wheat powdery mildew controlling index determined according to the following equation: Controlling rate=(1-Incidence rate in treated region/Incidence rate in non-treated region)×100(%) [table]

[6] = system: Wheat glume blotch-causing microbe (Phaeosphaeria nodorum); experiment: Antimicrobial activity to various pathogenic microbes: P.n; conditions: 50 mg/L
Method: (§1) An inventive compound was dissolved in dimethylsulfoxide 2 ml. The solution 0.6 ml was added to a PDA medium (potato-dextrose-agar medium) 60 ml at around 60° C.
(§2) A flat plate containing a test microbe (wheat leaf blight-causing microbe) cultured separately was punched into pieces with a cork borer having a diameter of 4 mm and the circular plate obtained was placed on the flat plate media containing the chemical described above. The plates were cultured at 25° C. for 14 days after inoculation and the diameter of the microbial colony was determined. Hyphal expansion-inhibiting rate was calculated according to the following equation: R=100(dc−dt)/dc (wherein, R: hyphal expansion-inhibiting rate (%), dc: diameter of microbial colony on non-treated flat plate, dt: diameter of microbial colony on chemically-treated flat plate).
(§3) In this Test Example, the antimicrobial activity of the inventive compounds to various plant disease-causing fungi and industrial material-eroding microorganisms was studied by the method described in Example 1.
(§4) The results thus obtained were evaluated in 5 stages according to the criteria below:
Wheat glume blotch-causing microbe (Phaeosphaeria nodorum) P.n

[7] = system: Wheat eye spot-causing microbe (Pseudocercoporella herpotrichoides); experiment: Antimicrobial activity to various pathogenic microbes: P.h; conditions: 50 mg/L
Method: as §1
(§5) The plates were cultured at 25° C. for 14 days after inoculation and the diameter of the microbial colony was determined. Hyphal expansion-inhibiting rate was calculated according to the following equation: R=100(dc−dt)/dc (wherein, R: hyphal expansion-inhibiting rate (%), dc: diameter of microbial colony on non-treated flat plate, dt: diameter of microbial colony on chemically-treated flat plate).
as §4
Wheat eye spot-causing microbe (Pseudocercoporella herpotrichoides) P.h

[8] = system: Barley loose smut-causing microbe (Ustilago nuda); experiment: Antimicrobial activity to various pathogenic microbes: U.n; conditions: 50 mg/L
Method: as §1, §5, §4
Barley loose smut-causing microbe (Ustilago nuda) U.n

[9] = system: Rice bakanae disease-causing microbe (Gibberella fujikuroi); experiment: Antimicrobial activity to various pathogenic microbes: G.f; conditions: 50 mg/L
Method: as §1, §2, §4

[10] = system: Apple alternaria blotch-causing microbe (Alternaria alternata); experiment: Antimicrobial activity to various pathogenic microbes: A.m; conditions: 50 mg/L
Method: as §1, §2, §3, §4
Apple alternaria blotch-causing microbe (Alternaria alternata) A.m

[11] = system: Sclerotinia rot-causing microbe (Sclerotinia sclerotiorum); experiment: Antimicrobial activity to various pathogenic microbes: S.s; conditions: 50 mg/L
Method: as §1, §2, §4
Sclerotinia rot-causing microbe (Sclerotinia sclerotiorum) S.s

[12] = system: Gray mold-causing microbe (Botrytis cinerea); experiment: Antimicrobial activity to various pathogenic microbes: B.c; conditions: 50 mg/L
Method: as §1, §2, §3, §4
Gray mold-causing microbe (Botrytis cinerea) B.c

[13] = system: Cucumber Fusarium wilt-causing microbe (Fusarium oxysporum); experiment: Antimicrobial activity to various pathogenic microbes: F.c; conditions: 50 mg/L
Method: as §1, §2, §4

[14] = system: Barley scald-causing microbe (Rhynchosporium secalis); experiment: Antimicrobial activity to various pathogenic microbes: R.sec; conditions: 50 mg/L
Method: as §1, §2, §3, §4
Barley scald-causing microbe (Rhynchosporium secalis) R.sec

wheat = experiment: Damage to wheat (growth inhibition) by seed treatment (pot test); conditions: 2 mg in DMSO applied to wheat seeds 1 g, 14 to 28 days after seeding, larger index = smaller damage

SMILES | Growth inhibition [1] | Controlling index [2] | Growth inhibition (hyphal expansion-inhibiting rate grade) F.g [3] | Growth inhibition (hyphal expansion-inhibiting rate grade) P.o [4] | Controlling index Wheat powdery mildew [5] | Growth inhibition (hyphal expansion-inhibiting rate grade) P.n [6] | Growth inhibition (hyphal expansion-inhibiting rate grade) P.h [7] | Growth inhibition (hyphal expansion-inhibiting rate grade) U.n [8] | Growth inhibition (hyphal expansion-inhibiting rate grade) G.f [9] | Growth inhibition (hyphal expansion-inhibiting rate grade) A.m [10] | Growth inhibition (hyphal expansion-inhibiting rate grade) S.s [11] | Growth inhibition (hyphal expansion-inhibiting rate grade) B.c [12] | Growth inhibition (hyphal expansion-inhibiting rate grade) F.c [13] | Growth inhibition (hyphal expansion-inhibiting rate grade) R.sec [14] | Damage index Growth inhibition (wheat) | inhibition at 50 µg/mL [1] [%]
C#CCOC(=O)[C@]1(C)CC[C@@H](Cc2ccc(Cl)cc2)[C@]1(O)Cn1cncn1 (racemic) [Compound I-5, 2-propynyl-(1RS,2RS,3SR)-3-(4-chlorobenzyl)-2-hydroxy-1-methyl-2-(1H-1,2,4-triazol-1-ylmethyl)cyclopentanecarboxylate] | 5 (hyphal expansion-inhibiting rate: 80% or more) | 5 (81 to 100) | 5 (hyphal expansion-inhibiting rate: 80% or more) | 5 (hyphal expansion-inhibiting rate: 80% or more) | 5 (Controlling rate: 40 or more) | 5 (hyphal expansion-inhibiting rate: 80% or more) | 5 (hyphal expansion-inhibiting rate: 80% or more) | 5 (hyphal expansion-inhibiting rate: 80% or more) | 5 (hyphal expansion-inhibiting rate: 80% or more) | 5 (hyphal expansion-inhibiting rate: 80% or more) | 5 (hyphal expansion-inhibiting rate: 80% or more) | 5 (hyphal expansion-inhibiting rate: 80% or more) | 5 (hyphal expansion-inhibiting rate: 80% or more) | 5 (hyphal expansion-inhibiting rate: 80% or more) | 1 (60% or more and less than 80%) | –
COC(=O)[C@]1(C)CC[C@H](Cc2ccc(Cl)cc2)[C@@]1(O)Cn1cncn1 (racemic) [Compound I-132, methyl-(1RS,2SR,3RS)-3-(4-chlorobenzyl)-2-hydroxy-1-methyl-2-(1H-1,2,4-triazol-1-ylmethyl)cyclopentanecarboxylate] | – | 5 (81 to 100) | 5 (hyphal expansion-inhibiting rate: 80% or more) | 5 (hyphal expansion-inhibiting rate: 80% or more) | 5 (Controlling rate: 40 or more) | 5 (hyphal expansion-inhibiting rate: 80% or more) | 5 (hyphal expansion-inhibiting rate: 80% or more) | 5 (hyphal expansion-inhibiting rate: 80% or more) | 5 (hyphal expansion-inhibiting rate: 80% or more) | 5 (hyphal expansion-inhibiting rate: 80% or more) | 5 (hyphal expansion-inhibiting rate: 80% or more) | 5 (hyphal expansion-inhibiting rate: 80% or more) | 5 (hyphal expansion-inhibiting rate: 80% or more) | 5 (hyphal expansion-inhibiting rate: 80% or more) | 5 | > 80
C=CCOC(=O)[C@]1(C)CC[C@@H](Cc2ccc(Cl)cc2)[C@]1(O)Cn1cncn1 (racemic) [Compound I-4, allyl-(1RS,2RS,3SR)-3-(4-chlorobenzyl)-2-hydroxy-1-methyl-2-(1H-1,2,4-triazol-1-ylmethyl)cyclopentanecarboxylate] | – | 5 (81 to 100) | 5 (hyphal expansion-inhibiting rate: 80% or more) | 5 (hyphal expansion-inhibiting rate: 80% or more) | – | 5 (hyphal expansion-inhibiting rate: 80% or more) | 5 (hyphal expansion-inhibiting rate: 80% or more) | 5 (hyphal expansion-inhibiting rate: 80% or more) | 5 (hyphal expansion-inhibiting rate: 80% or more) | 5 (hyphal expansion-inhibiting rate: 80% or more) | 5 (hyphal expansion-inhibiting rate: 80% or more) | 5 (hyphal expansion-inhibiting rate: 80% or more) | 5 (hyphal expansion-inhibiting rate: 80% or more) | 5 (hyphal expansion-inhibiting rate: 80% or more) | – | > 80
C#CCOC(=O)[C@]1(C)CC[C@H](Cc2ccc(Cl)cc2)[C@@]1(O)Cn1cncn1 (racemic) [Compound I-135, 2-propynyl-(1RS,2SR,3RS)-3-(4-chlorobenzyl)-2-hydroxy-1-methyl-2-(1H-1,2,4-triazol-1-ylmethyl)cyclopentanecarboxylate] | 5 (hyphal expansion-inhibiting rate: 80% or more) | 5 (81 to 100) | 5 (hyphal expansion-inhibiting rate: 80% or more) | 5 (hyphal expansion-inhibiting rate: 80% or more) | – | 5 (hyphal expansion-inhibiting rate: 80% or more) | 5 (hyphal expansion-inhibiting rate: 80% or more) | 5 (hyphal expansion-inhibiting rate: 80% or more) | 5 (hyphal expansion-inhibiting rate: 80% or more) | 5 (hyphal expansion-inhibiting rate: 80% or more) | 5 (hyphal expansion-inhibiting rate: 80% or more) | 5 (hyphal expansion-inhibiting rate: 80% or more) | 5 (hyphal expansion-inhibiting rate: 80% or more) | 5 (hyphal expansion-inhibiting rate: 80% or more) | – | –
COC(=O)[C@@]1(CCl)CC[C@H](Cc2ccc(F)cc2)[C@@]1(O)Cn1cncn1 (racemic) [Compound I-78, methyl-(1RS, 2SR,3RS)-3-(4-fluorobenzyl)-1-chloromethyl-2-hydroxy-2-(1H-1,2,4-triazol-1-ylmethyl)cyclopentanecarboxylate] | – | 5 (81 to 100) | 5 (hyphal expansion-inhibiting rate: 80% or more) | 5 (hyphal expansion-inhibiting rate: 80% or more) | – | 5 (hyphal expansion-inhibiting rate: 80% or more) | 5 (hyphal expansion-inhibiting rate: 80% or more) | 5 (hyphal expansion-inhibiting rate: 80% or more) | 5 (hyphal expansion-inhibiting rate: 80% or more) | 5 (hyphal expansion-inhibiting rate: 80% or more) | 5 (hyphal expansion-inhibiting rate: 80% or more) | 5 (hyphal expansion-inhibiting rate: 80% or more) | 5 (hyphal expansion-inhibiting rate: 80% or more) | 5 (hyphal expansion-inhibiting rate: 80% or more) | – | > 80
